Reference: patent publication US11939331B2, “Tricyclic heterocycles as FGFR inhibitors” (Incyte Corporation, priority 2021, dated 2024)

Target: wild-type un-phosphorylated FGFR3 protein (Homo sapiens, UniProt P22607)
Assay: FGFR Enzymatic Assay (FRET peptide phosphorylation)
Description: The inhibitor potency of the exemplified compounds was determined in an enzyme discontinuous assay that measures peptide phosphorylation using FRET measurements to detect product formation. Inhibitors were serially diluted in DMSO and a volume of 0.2 μL was transferred to the wells of a 384-well plate. A 5 μL/well volume of enzyme isoforms of FGFR (-1, -2, -3 wild-type and mutant isoforms, -4) including phosphorylated and un-phosphorylated proteins diluted in assay buffer (50 mM HEPES, 10 mM MgCl2, 1 mM EGTA, 0.01% Tween-20, 5 mM DTT, pH 7.5) was added to the plate and pre-incubated with inhibitor for 5 to 15 minutes at ambient temperature. Appropriate controls (enzyme blank and enzyme with no inhibitor) were included on the plate. The reaction was initiated by the addition of a 5 μL/well volume containing both biotinylated [sequence] peptide substrate (SEQ ID NO: 1) and ATP in assay buffer. The 10 μL/well reaction concentration of the peptide substrate was 500 nM whereas the ATP concentration was maintained near or below the ATP Km. The ATP Km values were pre-determined in a separate series of experiments. The reaction plate was incubated at 25° C. for 1 hr and the reactions were ended with the addition of 5 μL/well of quench solution (50 mM Tris, 150 mM NaCl, 0.5 mg/mL BSA, pH 7.8; 45 mM EDTA, 600 nM staurosporin, with Perkin Elmer Lance Reagents at 3.75 nM Eu-antibody PY20 and 180 nM APC-Streptavidin). The plate was allowed to equilibrate for ˜10 minutes at ambient temperature before scanning on a PheraStar plate reader (BMG Labtech) instrument.
Either GraphPad prism or XLfit was used to analyze the data. The IC50 values were derived by fitting the data to a four parameter logistic equation producing a sigmoidal dose-response curve with a variable Hill coefficient. Prism equation: Y=Bottom+(Top−Bottom)/(1+10^((Log IC50−X)*Hill slope)); XLfit equation: Y=(A+((B−A)/(1+((X/C)^D)))) where X is the logarithm of inhibitor concentration and Y is the response.

Sequence of wild-type un-phosphorylated FGFR3 protein (P22607 23-806): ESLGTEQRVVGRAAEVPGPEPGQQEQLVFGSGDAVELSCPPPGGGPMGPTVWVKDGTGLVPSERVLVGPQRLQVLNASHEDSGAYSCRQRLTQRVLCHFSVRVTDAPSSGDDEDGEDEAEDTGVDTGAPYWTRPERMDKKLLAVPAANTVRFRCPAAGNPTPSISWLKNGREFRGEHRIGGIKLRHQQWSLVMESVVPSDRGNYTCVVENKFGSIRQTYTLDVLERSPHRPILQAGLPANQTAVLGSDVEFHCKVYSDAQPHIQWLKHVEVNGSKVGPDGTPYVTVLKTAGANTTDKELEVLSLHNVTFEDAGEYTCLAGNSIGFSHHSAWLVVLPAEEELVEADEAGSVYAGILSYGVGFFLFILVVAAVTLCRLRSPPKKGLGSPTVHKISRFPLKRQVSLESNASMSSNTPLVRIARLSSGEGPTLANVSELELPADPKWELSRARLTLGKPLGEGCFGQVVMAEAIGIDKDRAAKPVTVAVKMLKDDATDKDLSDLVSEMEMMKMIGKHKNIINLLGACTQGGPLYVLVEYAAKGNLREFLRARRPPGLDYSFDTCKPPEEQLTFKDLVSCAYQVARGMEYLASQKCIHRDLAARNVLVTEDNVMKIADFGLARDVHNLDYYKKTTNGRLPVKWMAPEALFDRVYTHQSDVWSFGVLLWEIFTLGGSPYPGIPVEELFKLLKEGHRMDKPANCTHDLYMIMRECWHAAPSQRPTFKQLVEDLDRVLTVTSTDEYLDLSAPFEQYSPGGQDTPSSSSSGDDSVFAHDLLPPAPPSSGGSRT

Row | SMILES | IC50 [nM]
1 | NC(=O)c1c(-c2c(Cl)cccc2Cl)nc2c3cc(-c4cnn(CCO)c4)cnc3ccn12 [Example 1, 2-(2,6-Dichlorophenyl)-9-(1-(2-hydroxyethyl)-1H-pyrazol-4-yl)imidazo[2,1-f][1,6]naphthyridine-3-carboxamide] | < 0.1
2 | CC(C)(O)Cn1cc(-c2cnc3ccn4c(C(N)=O)c(-c5c(Cl)cccc5Cl)nc4c3c2)cn1 [Example 2, 2-(2,6-Dichlorophenyl)-9-(1-(2-hydroxy-2-methylpropyl)-1H-pyrazol-4-yl)imidazo[2,1-f][1,6]naphthyridine-3-carboxamide] | < 0.1
3 | CC(C)(C(N)=O)n1cc(-c2cnc3ccn4c(C(N)=O)c(-c5c(Cl)cccc5Cl)nc4c3c2)cn1 [Example 3, 9-(1-(1-Amino-2-methyl-1-oxopropan-2-yl)-1H-pyrazol-4-yl)-2-(2,6-dichlorophenyl)imidazo[2,1-f][1,6]naphthyridine-3-carboxamide] | 0.1 to 1
4 | NC(=O)c1c(-c2c(Cl)cccc2Cl)nc2c3cc(-c4ccc(C(=O)N5CCOCC5)cc4)cnc3ccn12 [Example 4, 2-(2,6-Dichlorophenyl)-9-(4-(morpholine-4-carbonyl)phenyl)imidazo[2,1-f][1,6]naphthyridine-3-carboxamide] | < 0.1
5 | NC(=O)c1c(-c2c(Cl)cccc2Cl)nc2c3cc(-c4cn[nH]c4)cnc3ccn12 [Example 5, 2-(2,6-Dichlorophenyl)-9-(1H-pyrazol-4-yl)imidazo[2,1-f][1,6]naphthyridine-3-carboxamide] | < 0.1
6 | CC(CC#N)n1cc(-c2cnc3ccn4c(C(N)=O)c(-c5c(Cl)cccc5Cl)nc4c3c2)cn1 (centres unmarked) [Example 6, 9-(1-(1-Cyanopropan-2-yl)-1H-pyrazol-4-yl)-2-(2,6-dichlorophenyl)imidazo[2,1-f][1,6]naphthyridine-3-carboxamide] | < 0.1
7 | CCC(O)Cn1cc(-c2cnc3ccn4c(C(N)=O)c(-c5c(Cl)cccc5Cl)nc4c3c2)cn1 (centres unmarked) [Example 7, 2-(2,6-Dichlorophenyl)-9-(1-(2-hydroxybutyl)-1H-pyrazol-4-yl)imidazo[2,1-f][1,6]naphthyridine-3-carboxamide] | 0.1 to 1
8 | NC(=O)c1c(-c2c(Cl)cccc2Cl)nc2c3cc(-c4cnn(CC5(F)CCOCC5)c4)cnc3ccn12 [Example 8, 2-(2,6-Dichlorophenyl)-9-(1-((4-fluorotetrahydro-2H-pyran-4-yl)methyl)-1H-pyrazol-4-yl)imidazo[2,1-f][1,6]naphthyridine-3-carboxamide] | < 0.1
9 | N#Cc1cncc(Cn2cc(-c3cnc4ccn5c(C(N)=O)c(-c6c(Cl)cccc6Cl)nc5c4c3)cn2)c1 [Example 9, 9-(1-((5-Cyanopyridin-3-yl)methyl)-1H-pyrazol-4-yl)-2-(2,6-dichlorophenyl)imidazo[2,1-f][1,6]naphthyridine-3-carboxamide] | < 0.1
10 | N#Cc1cc(Cn2cc(-c3cnc4ccn5c(C(N)=O)c(-c6c(Cl)cccc6Cl)nc5c4c3)cn2)ccn1 [Example 10, 9-(1-((2-Cyanopyridin-4-yl)methyl)-1H-pyrazol-4-yl)-2-(2,6-dichlorophenyl)imidazo[2,1-f][1,6]naphthyridine-3-carboxamide] | < 0.1
11 | NC(=O)c1c(-c2c(Cl)cccc2Cl)nc2c3cc(-c4cnn(Cc5ccncn5)c4)cnc3ccn12 [Example 11, 2-(2,6-Dichlorophenyl)-9-(1-(pyrimidin-4-ylmethyl)-1H-pyrazol-4-yl)imidazo[2,1-f][1,6]naphthyridine-3-carboxamide] | < 0.1
12 | CC(c1ccnc(C#N)c1)n1cc(-c2cnc3ccn4c(C(N)=O)c(-c5c(Cl)cccc5Cl)nc4c3c2)cn1 (centres unmarked) [Example 12, 9-(1-(1-(2-Cyanopyridin-4-yl)ethyl)-1H-pyrazol-4-yl)-2-(2,6-dichlorophenyl)imidazo[2,1-f][1,6]naphthyridine-3-carboxamide] | 0.1 to 1
13 | NC(=O)c1c(-c2c(Cl)cccc2Cl)nc2c3cc(-c4ccc(C5CCS(=O)(=O)CC5)cc4)cnc3ccn12 [Example 13, 2-(2,6-Dichlorophenyl)-9-(4-(1,1-dioxidotetrahydro-2H-thiopyran-4-yl)phenyl)imidazo[2,1-f][1,6]naphthyridine-3-carboxamide] | 0.1 to 1
14 | NC(=O)c1c(-c2c(Cl)cccc2Cl)nc2c3cc(-c4ccc(N5CCS(=O)(=O)CC5)cc4)cnc3ccn12 [Example 14, 2-(2,6-Dichlorophenyl)-9-(4-(1,1-dioxidothiomorpholino)phenyl)imidazo[2,1-f][1,6]naphthyridine-3-carboxamide] | < 0.1
15 | NC(=O)c1c(-c2c(Cl)cccc2Cl)nc2c3cc(-c4cnn(Cc5ncccn5)c4)cnc3ccn12 [Example 15, 2-(2,6-Dichlorophenyl)-9-(1-(pyrimidin-2-ylmethyl)-1H-pyrazol-4-yl)imidazo[2,1-f][1,6]naphthyridine-3-carboxamide] | < 0.1
16 | N#Cc1cccc(Cn2cc(-c3cnc4ccn5c(C(N)=O)c(-c6c(Cl)cccc6Cl)nc5c4c3)cn2)n1 [Example 16, 9-(1-((6-Cyanopyridin-2-yl)methyl)-1H-pyrazol-4-yl)-2-(2,6-dichlorophenyl)imidazo[2,1-f][1,6]naphthyridine-3-carboxamide] | < 0.1
17 | CC(=O)N1CCN(c2ccc(-c3cnc4ccn5c(C(N)=O)c(-c6c(Cl)cccc6Cl)nc5c4c3)cc2)CC1 [Example 17, 9-(4-(4-Acetylpiperazin-1-yl)phenyl)-2-(2,6-dichlorophenyl)imidazo[2,1-f][1,6]naphthyridine-3-carboxamide] | < 0.1
18 | NC(=O)c1c(-c2c(Cl)cccc2Cl)nc2c3cc(-c4ccc(N5CCN(C(=O)CO)CC5)cc4)cnc3ccn12 [Example 18, 2-(2,6-Dichlorophenyl)-9-(4-(4-(2-hydroxyacetyl)piperazin-1-yl)phenyl)imidazo[2,1-f][1,6]naphthyridine-3-carboxamide] | < 0.1
19 | CC(=O)N1CCN(Cc2ccc(-c3cnc4ccn5c(C(N)=O)c(-c6c(Cl)cccc6Cl)nc5c4c3)cc2)CC1 [Example 19, 9-(4-((4-Acetylpiperazin-1-yl)methyl)phenyl)-2-(2,6-dichlorophenyl)imidazo[2,1-f][1,6]naphthyridine-3-carboxamide] | < 0.1

More lines, now with the values ahead:

Row | IC50 [nM] | SMILES
20 | 0.1 to 1 | NC(=O)c1c(-c2c(Cl)cccc2Cl)nc2c3cc(-c4ccc(CN5CCN(C(=O)CO)CC5)cc4)cnc3ccn12 [Example 20, 2-(2,6-Dichlorophenyl)-9-(4-((4-(2-hydroxyacetyl)piperazin-1-yl)methyl)phenyl)imidazo[2,1-f][1,6]naphthyridine-3-carboxamide]
21 | < 0.1 | CN1CCN(c2ccc(-c3cnc4ccn5c(C(N)=O)c(-c6c(Cl)cccc6Cl)nc5c4c3)cc2)CC1 [Example 21, 2-(2,6-Dichlorophenyl)-9-(4-(4-methylpiperazin-1-yl)phenyl)imidazo[2,1-f][1,6]naphthyridine-3-carboxamide]
22 | < 0.1 | NC(=O)c1c(-c2c(Cl)cccc2Cl)nc2c3cc(-c4ccc(C(=O)N5C[C@@H]6C[C@H]5CO6)cc4)cnc3ccn12 [Example 22, 9-(4-((1S,4S)-2-Oxa-5-azabicyclo[2.2.1]heptane-5-carbonyl)phenyl)-2-(2,6-dichlorophenyl)imidazo[2,1-f][1,6]naphthyridine-3-carboxamide]
23 | < 0.1 | N#CCn1cc(-c2cnc3ccn4c(C(N)=O)c(-c5c(Cl)cccc5Cl)nc4c3c2)cn1 [Example 23, 9-(1-(Cyanomethyl)-1H-pyrazol-4-yl)-2-(2,6-dichlorophenyl)imidazo[2,1-f][1,6]naphthyridine-3-carboxamide]
24 | 0.1 to 1 | NC(=O)c1c(-c2c(Cl)cccc2Cl)nc2c3cc(-c4cnn(C5CCOCC5)c4)cnc3ccn12 [Example 24, 2-(2,6-Dichlorophenyl)-9-(1-(tetrahydro-2H-pyran-4-yl)-1H-pyrazol-4-yl)imidazo[2,1-f][1,6]naphthyridine-3-carboxamide]
25 | 0.1 to 1 | NC(=O)c1c(-c2c(Cl)cccc2Cl)nc2c3cc(-c4cnn(Cc5ccccc5)c4)cnc3ccn12 [Example 25, 9-(1-Benzyl-1H-pyrazol-4-yl)-2-(2,6-dichlorophenyl)imidazo[2,1-f][1,6]naphthyridine-3-carboxamide]
26 | < 0.1 | CS(=O)(=O)CCn1cc(-c2cnc3ccn4c(C(N)=O)c(-c5c(Cl)cccc5Cl)nc4c3c2)cn1 [Example 26, 2-(2,6-Dichlorophenyl)-9-(1-(2-(methylsulfonyl)ethyl)-1H-pyrazol-4-yl)imidazo[2,1-f][1,6]naphthyridine-3-carboxamide]
27 | < 0.1 | CC(C#N)n1cc(-c2cnc3ccn4c(C(N)=O)c(-c5c(Cl)cccc5Cl)nc4c3c2)cn1 (centres unmarked) [Example 27, 9-(1-(1-Cyanoethyl)-1H-pyrazol-4-yl)-2-(2,6-dichlorophenyl)imidazo[2,1-f][1,6]naphthyridine-3-carboxamide]
28 | < 0.1 | NC(=O)c1c(-c2c(Cl)cccc2Cl)nc2c3cc(-c4cnn(CC(F)F)c4)cnc3ccn12 [Example 28, 2-(2,6-Dichlorophenyl)-9-(1-(2,2-difluoroethyl)-1H-pyrazol-4-yl)imidazo[2,1-f][1,6]naphthyridine-3-carboxamide]
29 | < 0.1 | CN1CCC(n2cc(-c3cnc4ccn5c(C(N)=O)c(-c6c(Cl)cccc6Cl)nc5c4c3)cn2)CC1 [Example 29, 2-(2,6-Dichlorophenyl)-9-(1-(1-methylpiperidin-4-yl)-1H-pyrazol-4-yl)imidazo[2,1-f][1,6]naphthyridine-3-carboxamide]
30 | < 0.1 | CC(C)(CO)n1cc(-c2cnc3ccn4c(C(N)=O)c(-c5c(Cl)cccc5Cl)nc4c3c2)cn1 [Example 30, 2-(2,6-Dichlorophenyl)-9-(1-(1-hydroxy-2-methylpropan-2-yl)-1H-pyrazol-4-yl)imidazo[2,1-f][1,6]naphthyridine-3-carboxamide]
31 | < 0.1 | CC(C)(C#N)n1cc(-c2cnc3ccn4c(C(N)=O)c(-c5c(Cl)cccc5Cl)nc4c3c2)cn1 [Example 31, 9-(1-(2-Cyanopropan-2-yl)-1H-pyrazol-4-yl)-2-(2,6-dichlorophenyl)imidazo[2,1-f][1,6]naphthyridine-3-carboxamide]
32 | < 0.1 | NC(=O)c1c(-c2c(Cl)cccc2Cl)nc2c3cc(-c4cnn(C5CC5)c4)cnc3ccn12 [Example 32, 9-(1-Cyclopropyl-1H-pyrazol-4-yl)-2-(2,6-dichlorophenyl)imidazo[2,1-f][1,6]naphthyridine-3-carboxamide]
